Experimental findings from patent publication US20250375460A1, “STAT DEGRADERS AND USES THEREOF” (Kymera Therapeutics, Inc., priority 2022, published 2025) are described below.

This experiment concerns the target T1, STAT3 (Homo sapiens, UniProt P40763).
T1 construct: expressed in transfected cells; host or cells: A549
Description: STAT3 HiBiT degradation assay in transfected A549 cells. The format is cell-based. Particulars: 24 h compound incubation, Nano-Glo HiBiT lytic detection, read-out: STAT3 HiBiT A549 degradation 24 h: Average external-Abs DC50. How it is done:
Compound preparation and Cell seeding: The transfected A549 cells were harvested from dish into cell culture medium and cell numbers counted. Cells were diluted with culture medium to the desired density and 30 μL of cell suspension (about 2000 cells/well) were added into each well of a 384-well cell culture plate as designated and transferred into 37° C. 5% CO2 incubator for 24 h. Compounds were dissolved to 10 mM stock solution and 12 μL of the stock solution was transferred to a 384 LDV-plate. 3 fold, 10-point dilution was performed by transferring 4 μL compound into 8 μL DMSO using a TECAN (EVO200) liquid handler. 30 μL of diluted compound from compound source plate was transferred into the cell plate as designated by using Echo550 and transferred into 37° C. 5% CO2 incubator for 24 h.
Detection: Plates were removed from incubators and equilibrated at room temperature for 15 minutes. Nano-Glo Hibit Lytic Detection reagent (Promega Cat #N3040) was thawed and equilibrated to room temperature before the experiment. 30 μL of Nano-Glo Hibit Lytic Detection reagent was added into each well to be detected. The plates were held at room temperature for 10 min followed by reading on EnSpire.
Data analysis: The remaining activity was calculated following the formula: Remaining Activity(%)=100%×(Lumsample−LumNC)/(LumPC−LumNC). Calculate the IC50 by fitting the curve using Xlfit (v5.3.1.3), equation 201: fit=(A+((B−A)/(1+((x/C)^D)))); A: Bottom; B: Top; C: IC50; and D: Slope.
The letter codes for STAT3 DC50 include: A (<0.001 μM), B (0.001-0.01 μM), C (0.01-0.1 μM), and D (>0.1 μM).

The structures appear in SMILES notation. A value given as a limit tells only on which side of the number the result lay.

T1 sequence (P40763 whole entry): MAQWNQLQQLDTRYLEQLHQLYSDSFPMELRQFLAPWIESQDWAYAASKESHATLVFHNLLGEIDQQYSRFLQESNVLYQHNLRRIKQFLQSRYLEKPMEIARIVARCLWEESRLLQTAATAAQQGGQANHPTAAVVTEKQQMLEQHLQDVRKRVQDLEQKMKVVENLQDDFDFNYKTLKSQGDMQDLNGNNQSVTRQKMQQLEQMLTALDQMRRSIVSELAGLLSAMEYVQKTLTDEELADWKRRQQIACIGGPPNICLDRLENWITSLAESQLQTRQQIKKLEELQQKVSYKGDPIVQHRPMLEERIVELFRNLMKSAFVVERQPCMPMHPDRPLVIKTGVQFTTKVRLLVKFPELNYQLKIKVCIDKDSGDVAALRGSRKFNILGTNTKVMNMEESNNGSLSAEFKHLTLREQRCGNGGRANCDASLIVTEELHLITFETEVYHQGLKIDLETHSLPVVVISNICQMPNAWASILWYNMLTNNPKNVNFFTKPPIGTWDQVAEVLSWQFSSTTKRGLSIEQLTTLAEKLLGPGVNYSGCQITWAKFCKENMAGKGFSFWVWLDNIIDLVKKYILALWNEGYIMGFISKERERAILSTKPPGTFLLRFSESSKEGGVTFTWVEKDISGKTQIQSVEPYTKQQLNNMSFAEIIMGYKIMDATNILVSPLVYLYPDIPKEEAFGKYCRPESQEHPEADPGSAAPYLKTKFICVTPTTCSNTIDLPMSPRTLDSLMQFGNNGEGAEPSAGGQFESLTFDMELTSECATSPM

As usually defined, the DC50 is the concentration giving 50% degradation. Consider `C#Cc1ccc([C@H](C)NC(=O)[C@@H]2C[C@@H](O)CN2C(=O)[C@@H](c2cc(OCCCc3cccc(OC[C@H](CCC(N)=O)NC(=O)[C@@H]4CC[C@@H]5CCN(C(C)=O)C[C@H](NC(=O)c6cc7cc(C(=O)P(=O)(O)O)ccc7[nH]6)C(=O)N54)c3Cl)no2)C(C)C)cc1` [I-1], for which the DC50 was less than 1 nM.
Consider `CC(=O)N1CC[C@H]2CC[C@@H](C(=O)N[C@@H](CCC(N)=O)COc3cccc(CCCOc4cc([C@@H](C(=O)N5C[C@H](O)C[C@H]5C(=O)N[C@@H](C)c5ccc(-c6scnc6C)cc5)C(C)C)on4)c3Cl)N2C(=O)[C@@H](NC(=O)c2cc3cc(C(=O)P(=O)(O)O)ccc3[nH]2)C1` [I-2], for which the DC50 lay within 10 to 100 nM.
With `C#Cc1ccc(CNC(=O)[C@@H]2C[C@@H](O)CN2C(=O)[C@@H](c2cc(OCCCc3cccc(OC[C@H](CCC(N)=O)NC(=O)[C@@H]4CC[C@@H]5CCN(C(C)=O)C[C@H](NC(=O)c6cc7cc(C(=O)P(=O)(O)O)ccc7[nH]6)C(=O)N54)c3Cl)no2)C(C)C)cc1` [I-3], the DC50 was less than 1 nM.
To `C#Cc1ccc([C@H](C)NC(=O)[C@@H]2C[C@@H](O)CN2C(=O)[C@@H](NC(=O)CCCc2cccc(OC[C@H](CCC(N)=O)NC(=O)[C@@H]3CC[C@@H]4CCN(C(C)=O)C[C@H](NC(=O)c5cc6cc(C(=O)P(=O)(O)O)ccc6[nH]5)C(=O)N43)c2Cl)C(C)(C)C)cc1` [I-4] belongs 1 to 10 nM.
As to `C#Cc1ccc(CNC(=O)[C@@H]2C[C@@H](O)CN2C(=O)[C@@H](NC(=O)CCCc2cccc(OC[C@H](CCC(N)=O)NC(=O)[C@@H]3CC[C@@H]4CCN(C(C)=O)C[C@H](NC(=O)c5cc6cc(C(=O)P(=O)(O)O)ccc6[nH]5)C(=O)N43)c2Cl)C(C)(C)C)cc1` [I-5], the DC50 is 1 to 10 nM.
For `C#Cc1ccc(CNC(=O)[C@@H]2C[C@@H](O)CN2C(=O)[C@@H](c2cc(OCCCc3cccc(OC[C@H](CCC(N)=O)NC(=O)[C@@H]4CC[C@@H]5CCN(C(C)=O)C[C@H](NC(=O)c6cc7cc(C(=O)P(=O)(O)O)ccc7[nH]6)C(=O)N54)c3F)no2)C(C)C)cc1` [I-7], the DC50 was less than 1 nM.
The value for `C#Cc1ccc([C@H](C)NC(=O)[C@@H]2C[C@@H](O)CN2C(=O)[C@@H](NC(=O)CCCc2cccc(OC[C@H](CCC(N)=O)NC(=O)[C@@H]3CC[C@@H]4CCN(C(C)=O)C[C@H](NC(=O)c5cc6cc(C(=O)P(=O)(O)O)ccc6[nH]5)C(=O)N43)c2F)C(C)(C)C)cc1` [I-8] was 1 to 10 nM; that for `C#Cc1ccc(CNC(=O)[C@@H]2C[C@@H](O)CN2C(=O)[C@@H](NC(=O)CCCc2cccc(OC[C@H](CCC(N)=O)NC(=O)[C@@H]3CC[C@@H]4CCN(C(C)=O)C[C@H](NC(=O)c5cc6cc(C(=O)P(=O)(O)O)ccc6[nH]5)C(=O)N43)c2F)C(C)(C)C)cc1` [I-9] was 1 to 10 nM.
The value for `C#Cc1ccc([C@H](C)NC(=O)[C@@H]2C[C@@H](O)CN2C(=O)[C@@H](c2cc(OCCCc3cccc(OC[C@H](CCC(N)=O)NC(=O)[C@@H]4CC[C@@H]5CCN(C(C)=O)C[C@H](NC(=O)c6cc7cc(C(=O)P(=O)(O)O)ccc7[nH]6)C(=O)N54)c3C)no2)C(C)C)cc1` [I-10] was 1 to 10 nM.
The value for `C#Cc1ccc([C@H](C)NC(=O)[C@@H]2C[C@@H](O)CN2C(=O)[C@H](c2cc(OCCCc3cccc(OC[C@H](CCC(N)=O)NC(=O)[C@@H]4CC[C@@H]5CCN(C(C)=O)C[C@H](NC(=O)c6cc7cc(C(=O)P(=O)(O)O)ccc7[nH]6)C(=O)N54)c3C)no2)C(C)C)cc1` [I-11] was greater than 100 nM.
As for `C#Cc1ccc([C@H](C)NC(=O)[C@@H]2C[C@@H](O)CN2C(=O)[C@@H](NC(=O)CCCc2cccc(OC[C@H](CCC(N)=O)NC(=O)[C@@H]3CC[C@@H]4CCN(C(C)=O)C[C@H](NC(=O)c5cc6cc(C(=O)P(=O)(O)O)ccc6[nH]5)C(=O)N43)c2C)C(C)(C)C)cc1` [I-13], the DC50 was in the range of 10 to 100 nM.
The value for `C#Cc1ccc(CNC(=O)[C@@H]2C[C@@H](O)CN2C(=O)[C@@H](NC(=O)CCCc2cccc(OC[C@H](CCC(N)=O)NC(=O)[C@@H]3CC[C@@H]4CCN(C(C)=O)C[C@H](NC(=O)c5cc6cc(C(=O)P(=O)(O)O)ccc6[nH]5)C(=O)N43)c2C)C(C)(C)C)cc1` [I-14] was 1 to 10 nM; that for `CC(=O)N1CC[C@H]2CC[C@@H](C(=O)N[C@@H](CCC(N)=O)COc3cccc(CCCOc4cc([C@H](C(=O)N5C[C@H](O)C[C@H]5C(=O)N[C@@H](C)c5ccc(-c6scnc6C)cc5)C(C)C)on4)c3F)N2C(=O)[C@@H](NC(=O)c2cc3cc(C(=O)P(=O)(O)O)ccc3[nH]2)C1` [I-15] was less than 1 nM; that for `CC(=O)N1CC[C@H]2CC[C@@H](C(=O)N[C@@H](CCC(N)=O)COc3cccc(CCCOc4cc([C@@H](C(=O)N5C[C@H](O)C[C@H]5C(=O)N[C@@H](C)c5ccc(-c6scnc6C)cc5)C(C)C)on4)c3C)N2C(=O)[C@@H](NC(=O)c2cc3cc(C(=O)P(=O)(O)O)ccc3[nH]2)C1` [I-20] was 10 to 100 nM.
The value for `CC(=O)N1CC[C@H]2CC[C@@H](C(=O)N[C@@H](CCC(N)=O)COc3cccc(CCCOc4cc([C@H](C(=O)N5C[C@H](O)C[C@H]5C(=O)NCc5ccc(-c6scnc6C)cc5)C(C)C)on4)c3C)N2C(=O)[C@@H](NC(=O)c2cc3cc(C(=O)P(=O)(O)O)ccc3[nH]2)C1` [I-21] was less than 1 nM.
To `CC(=O)N1CC[C@H]2CC[C@@H](C(=O)N[C@@H](CCC(N)=O)COc3cccc(CCCOc4cc([C@@H](C(=O)N5C[C@H](O)C[C@H]5C(=O)NCc5ccc(-c6scnc6C)cc5)C(C)C)on4)c3C)N2C(=O)[C@@H](NC(=O)c2cc3cc(C(=O)P(=O)(O)O)ccc3[nH]2)C1` [I-22] belongs 10 to 100 nM.
As for `CC(=O)N1CC[C@H]2CC[C@@H](C(=O)N[C@@H](CCC(N)=O)COc3cccc(CCCOc4cc([C@H](C(=O)N5C[C@H](O)C[C@H]5C(=O)N[C@@H](C)c5ccc(-c6scnc6C)cc5)C(C)C)on4)c3Cl)N2C(=O)[C@@H](NC(=O)c2cc3cc(C(=O)P(=O)(O)O)ccc3[nH]2)C1` [I-23], the DC50 is less than 1 nM.
The value for `CC(=O)N1CC[C@@H]2CC[C@H](C(=O)N[C@@H](CCC(N)=O)COc3cccc(CCCCC(=O)N[C@H](C(=O)N4C[C@H](O)C[C@H]4C(=O)NCc4ccc(-c5scnc5C)cc4)C(C)(C)C)c3Cl)N2C(=O)[C@H](NC(=O)c2cc3cc(C(=O)P(=O)(O)O)ccc3[nH]2)C1` [I-24] was greater than 100 nM; that for `CCOP(=O)(OCC)C(=O)c1ccc2[nH]c(C(=O)N[C@H]3CN(C(C)=O)CC[C@H]4CC[C@@H](C(=O)N[C@@H](CCC(N)=O)COc5cccc(CCCOc6cc([C@H](C(=O)N7C[C@H](O)C[C@H]7C(=O)NCc7ccc(-c8scnc8C)cc7)C(C)C)on6)c5Cl)N4C3=O)cc2c1` [I-25] was 10 to 100 nM.
The value for `CNC(=O)N1CC[C@H]2CC[C@@H](C(=O)N[C@@H](CCC(N)=O)COc3cccc(CCCC(=O)N[C@H](C(=O)N4C[C@H](O)C[C@H]4C(=O)N[C@@H](C)c4ccc(-c5scnc5C)cc4)C(C)(C)C)c3Cl)N2C(=O)[C@@H](NC(=O)c2cc3cc(C(F)(F)P(=O)(O)O)ccc3s2)C1` [I-26] was greater than 100 nM; that for `CC(=O)N1CC[C@H]2CC[C@@H](C(=O)N[C@@H](CCC(N)=O)COc3cccc(CCCOc4cc([C@H](C(=O)N5C[C@H](O)C[C@H]5C(=O)NCc5ccc(-c6scnc6C)cc5)C(C)C)on4)c3Cl)N2C(=O)[C@@H](NC(=O)c2cc3cc(C(=O)P(=O)(O)O)ccc3[nH]2)C1` [I-27] was less than 1 nM.
Turning to `CC(=O)N1CC[C@H]2CC[C@@H](S(=O)(=O)N[C@@H](CCC(N)=O)COc3cccc(CCCC(=O)N[C@H](C(=O)N4C[C@H](O)C[C@H]4C(=O)N[C@@H](C)c4ccc(-c5scnc5C)cc4)C(C)(C)C)c3Cl)N2C(=O)[C@@H](NC(=O)c2cc3cc(C(=O)P(=O)(O)O)ccc3[nH]2)C1` [I-30], the DC50 was 1 to 10 nM.
